From patent publication US20100173331A1, “NOVEL NOTCH-ORIGIN POLYPEPTIDES AND BIOMARKERS AND REAGENTS USING THE SAME” (priority 2002, published 2010)

Target: T1, presenilin (Homo sapiens, UniProt P49768)
T1 construct: endogenous in cells; probably K293
Experiment: Pulse-chase of cells stably expressing F-NEXT with or without γ-secretase inhibitor; immunoprecipitation/SDS-PAGE of media (Nβ release) and lysates (NICD)
Assay type: cell-based
Details: 1 μM inhibitor, 1 hour pulse, 2-hour chase
Experimental: Human embryonic kidney 293 (K293), N2a and COS cells were cultured in DMEM supplemented with 10% fetal bovine serum, 1% penicillin/streptomycin, and 200 μg/ml zeocin (to select for PS1 expression), and/or 100 μg/ml hygromycin (to select for NΔE and F-NEXT expression). The K293 can stably express wild-type PS1, PS1 L286V, or PS1 D385N (Okochi et al, 2000, Kulic et al, 2000, Wolfe et al., 1999). The transfection with NΔE or F-NEXT was performed by means of a product named Lipofectamine 2000 (Invitrogen).
To determine NΔE N-terminal fragment (NTF: Nβ) release from NΔE expressing cells, K293 cells stably transfected with NΔE or NICD were grown to confluence in a 10 cm dish. The cells were then metabolically pulse-labeled for 2 hours with 300 μCi [^3H] amino acids (tritiated amino acid mixture, Amersham) in Earle's Balanced Salt Solution supplemented with MEM Vitamine Solution (Gibco) and several cold amino acids, followed by a 6-hour chase by 10% FCS/DMEM. To examine Nβ release, cells expressing F-NEXT were, at first, starved of methinine for 40 min with methionine-free media and then pulse-labeled for 1 hour with 400 μCi [^35S] amino acid mixture (Redivue Promix, Amersham) in methionine-free DMEM, followed by chasing for various time periods with the chase media containing 10% FCS/DMEM supplemented with excess cold methionine. […]

SMILES: CC(C)C[C@H](NC(=O)[C@H](Cc1ccccc1)C[C@@H](O)[C@H](Cc1ccccc1)NC(=O)OC(C)(C)C)C(=O)N[C@@H](Cc1ccccc1)C(N)=O [L685,458, [(2R,4R,5S)-2-Benzyl-5-(Boc-amino)-4-hydroxy-6-phenyl-hexanoyl]-Leu-Phe-NH2]
- NICD band in cell lysates (S3 cleavage), immunoprecipitated with 9E10 (FIG. 5B lower panel): hardly visible
- Nβ release to culture media (S4 cleavage), immunoprecipitated with M2-agarose (FIG. 5B upper panel): decreased drastically
